{"source": "paper PMC12406664", "about": "“New derivatives of 6-nitrocoumarin-3-thiosemicarbazone exhibit improved antiparasitic activity in the placenta against Trypanosoma cruzi and Toxoplasma gondii” (Antimicrobial Agents and Chemotherapy, 2025)", "key": {"[1]": {"system": "HPE exposed to T. gondii tachyzoites", "assay": "Histopathology of HPE infected with T. gondii", "format": "cell-based, human", "details": "IC50 concentration", "source_text": "(§1) Cells or HPE were exposed to parasites. […] The following treatment conditions were used in both infection models. […] Untreated cells or HPE served as a negative control, and the compounds’ activity was compared with the reference drugs (NFX and PMN)."}, "[2]": {"system": "T. gondii tachyzoites, RH strain", "assay": "Resazurin viability assay on free T. gondii tachyzoites", "format": "cell-based, Toxoplasma gondii", "source_text": "Untreated parasites served as a negative control."}, "[3]": {"assay": "Cyclic voltammetry, reduction potentials in DMSO (HDME, vs. Ag/AgCl)", "details": "2.00 V/s", "quoted_text": "Electrochemical studies were carried out on a Metrohm Autolab instrument model PGSTAT204, using dimethyl sulfoxide (DMSO) as the solvent (1 mM solutions), tetrabutylammonium perchlorate (0.1 M TBAP) as the supporting electrolyte, a hanging drop mercury electrode (HDME) as the working electrode, Ag/AgCl (3M KCl) as the reference electrode and a graphite rod as the counter electrode. All measurements were performed after bubbling with nitrogen (N2) for 10 minutes."}, "[4]": {"system": "T. gondii (RH strain) in BeWo cells", "assay": "Infection of BeWo cells by T. gondii, infected cells counted by fluorescence microscopy", "format": "cell-based, Toxoplasma gondii", "details": "compound at IC50, untreated control 64 ± 6", "description": "The effect of the compounds on the infection of BeWo trophoblast cells by T. gondii and T. cruzi was assessed. The DNA of T. gondii and T. cruzi was quantified in infected BeWo cells treated for 24 hours under two conditions: co-incubation and post-infection treatment. […] Fluorescence microscopy was employed to quantify the number of infected cells. The resulting images were analyzed using ImageJ software to count both infected and uninfected cells.\nFor the microscopic analysis of BeWo cells infected with T. cruzi, the cells were washed with PBS to remove the supernatant, fixed with 90% cold methanol, rewashed with PBS, and incubated for 5 minutes with 1 µg/mL—1 4,6-diamidino-2-phenylindole (DAPI) (Molecular Probes). To analyze BeWo cells infected with T. gondii, cells were fixed with 90% cold methanol, washed with PBS containing 0.05% Tween, and blocked using 3% BSA for 1 hour at 37°C. Then, they were incubated with the primary monoclonal antibody Toxoplasma gondii (TP3): sc-52255 at a dilution of 1:500 with 1% BSA overnight at 4°C. Afterward, the samples were incubated with the FITC anti-mouse IgG secondary antibody at a dilution of 1:100 with 1% BSA for 1 hour at 37°C. Finally, they were washed with PBS containing 0.05% Tween and incubated for 5 minutes with DAPI. Subsequently, the sections were mounted in Vectashield (ScyTek ACA). Sections for the analysis of cell infection by T. cruzi and T. gondii were observed under an epifluorescence microscope (Motic BA 310), and images were captured with a Motic 5 camera. T. cruzi amastigotes were identified by their morphology, including nuclear size and the presence of a kinetoplast, and were analyzed and quantified using ImageJ. At least 500 cells per condition were analyzed, and infected and non-infected cells were counted for every 100 cells ([35], [70]).\nas §1"}, "[5]": {"system": "T. gondii tachyzoites (strain RH)", "assay": "Intracellular ROS generation (DCF probe) in T. gondii", "format": "cell-based, Toxoplasma gondii", "details": "compound at IC50, menadione 20 µM, 40 minutes, vs untreated control", "description": "ROS detection was performed using the 2′,7′-dichlorodihydrofluorescein diacetate (DCFH2-DA) method ([45]). For the assay, Dm28c trypomastigotes and tachyzoites were seeded in 96-well plates at a density of 10⁶ parasites/mL. In contrast, BeWo cells were seeded at 5 × 10⁴ cells per well, using the previously described culture medium.\nAfter incubation with 20 µM DCFH2-DA for 15 minutes at 37°C, the parasites were centrifuged at 3,500 × g, washed twice with PBS (pH 7.4), and subsequently transferred to Nunc 96-well fluorescence plates. Meanwhile, after 24 hours of incubation at 37°C and 5% CO₂, the culture medium of BeWo cells was replaced, and 20 µM DCFH2-DA solution was added, followed by a 15 minute incubation at 37°C. The cells were then washed with PBS at pH 7.4. As a positive control, 20 µM menadione was used, while the negative control consisted of culture medium without compounds.\nOver time, the area under the fluorescence increase curve was determined using Origin 8 software (version 9.2), with normalization relative to the control. The results correspond to three independent experiments' mean ± standard deviation (SD)."}, "[6]": {"assay": "Cytotoxicity on cells (resazurin), EA.hy926", "format": "cell-based", "details": "human, EA.hy926 endothelial cells", "source_text": "Triton X-100 was used as a positive control, and untreated cells served as a negative control. In addition, the maximum concentration of DMSO was used as a control for the method. […] The obtained values were expressed as IC50([88])."}}}
{"molecule": "C/C(=N\\NC(N)=S)c1c(O)c2cc([N+](=O)[O-])ccc2oc1=O", "note": "[Compound 1, (E)−2-(1-(4-hydroxy-6-nitro-2-oxo-2H-chromen-3-yl)ethylidene)hydrazine-1-carbothioamide]", "values": [{"measurement": "tissue damage in infected HPE (histopathology)", "setting": "[1]; co-incubation", "result": "prevented tissue damage induced by tachyzoites"}, {"measurement": "tissue damage in infected HPE (histopathology)", "setting": "[1]; post-infection treatment", "result": "did not reduce the parasitic load or mitigate tissue damage"}, {"measurement": "IC50", "setting": "[2]; Toxoplasma gondii, extracellular tachyzoites RH strain, 24 h, resazurin", "result": "17.3 ± 0.5", "unit": "µM"}, {"measurement": "viability at 100 µM", "setting": "[2]; Toxoplasma gondii, tachyzoites RH, 100 µM, 24 h", "result": "24.3 ± 10.4", "unit": "%"}, {"measurement": "SI = BeWo CC50/parasite IC50", "setting": "[2]; parasite T. gondii", "result": 22.3}, {"measurement": "SI = EA.hy926 CC50/parasite IC50", "setting": "[2]; parasite T. gondii", "result": ">23.1"}, {"measurement": "E(pIIa)", "setting": "[3]; anodic peak IIa", "result": "−0.98", "unit": "V"}, {"measurement": "E(pIcb)", "setting": "[3]; cathodic peak Icb, nitro reduction", "result": "~−0.99", "unit": "V"}, {"measurement": "Infected cells (%)", "setting": "[4]; co-incubation 24 h", "result": "32 ± 7", "unit": "%"}, {"measurement": "Infected cells (%)", "setting": "[4]; post-infection treatment 24 h", "result": "52 ± 4", "unit": "%"}, {"measurement": "ROS generation (DCF fluorescence)", "setting": "[5]", "result": "increase in ROS levels, albeit lower than the positive control"}, {"measurement": "CC50 at 24 h", "setting": "[6]", "result": "> 400", "unit": "µM"}]}
